Experimental data taken from patent EP4667458A1 (Kanaph Therapeutics Inc., priority 2023, dated 2024).

The compounds below were run against T1, KRAS^G12C::SOS1 (Homo sapiens, UniProt Q07889) (assay: KRAS G12C::SOS1 protein-protein interaction (PPI) inhibition assay (HTRF binding kit)).
T1 sequence (Q07889 1-1333): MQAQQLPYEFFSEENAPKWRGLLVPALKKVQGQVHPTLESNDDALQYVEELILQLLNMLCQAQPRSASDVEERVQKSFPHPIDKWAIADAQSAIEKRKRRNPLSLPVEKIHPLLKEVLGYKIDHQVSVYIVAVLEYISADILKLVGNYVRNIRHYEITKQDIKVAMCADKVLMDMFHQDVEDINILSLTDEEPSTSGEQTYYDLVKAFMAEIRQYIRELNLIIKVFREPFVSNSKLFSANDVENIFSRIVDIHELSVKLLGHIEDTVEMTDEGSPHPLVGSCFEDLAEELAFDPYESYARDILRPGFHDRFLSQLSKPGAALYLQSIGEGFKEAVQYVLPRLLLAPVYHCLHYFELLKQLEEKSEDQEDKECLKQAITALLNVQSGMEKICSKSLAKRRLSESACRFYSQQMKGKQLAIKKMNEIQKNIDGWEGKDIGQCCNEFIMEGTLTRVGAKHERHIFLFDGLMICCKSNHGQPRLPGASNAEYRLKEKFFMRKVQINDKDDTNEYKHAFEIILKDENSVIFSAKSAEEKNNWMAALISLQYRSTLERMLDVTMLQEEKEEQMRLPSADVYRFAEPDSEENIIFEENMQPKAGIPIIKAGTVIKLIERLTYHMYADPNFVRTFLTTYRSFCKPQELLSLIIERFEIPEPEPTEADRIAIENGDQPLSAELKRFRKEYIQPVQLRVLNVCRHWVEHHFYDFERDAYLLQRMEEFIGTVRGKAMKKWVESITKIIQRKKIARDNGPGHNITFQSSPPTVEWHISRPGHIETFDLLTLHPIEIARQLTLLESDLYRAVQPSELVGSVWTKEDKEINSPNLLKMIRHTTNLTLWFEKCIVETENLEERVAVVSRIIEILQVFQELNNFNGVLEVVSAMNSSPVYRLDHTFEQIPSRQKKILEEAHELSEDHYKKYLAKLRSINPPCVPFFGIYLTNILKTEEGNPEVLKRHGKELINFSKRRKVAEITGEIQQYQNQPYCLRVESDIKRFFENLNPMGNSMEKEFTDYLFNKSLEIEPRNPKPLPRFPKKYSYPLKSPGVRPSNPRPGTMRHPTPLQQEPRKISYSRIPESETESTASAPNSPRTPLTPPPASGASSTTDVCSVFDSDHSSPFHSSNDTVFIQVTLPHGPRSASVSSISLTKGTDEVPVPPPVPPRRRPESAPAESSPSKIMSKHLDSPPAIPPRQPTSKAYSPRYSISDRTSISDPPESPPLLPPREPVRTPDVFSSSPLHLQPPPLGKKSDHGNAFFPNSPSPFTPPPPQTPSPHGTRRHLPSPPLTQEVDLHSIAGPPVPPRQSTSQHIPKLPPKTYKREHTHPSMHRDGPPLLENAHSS

SMILES	IC50
C[C@@H](NC(=O)c1ccc(=O)n(-c2cccc(-c3cncn3C)c2)n1)c1cc(N)cc(C(F)(F)F)c1 [Example 320, N-[(1R)-1-[3-amino-5-(trifluoromethyl)phenyl]ethyl]-1-[3-(3-methylimidazol-4-yl)phenyl]-6-oxo-pyridazine-3-carboxamide]	< 1000 nM
C[C@@H](NC(=O)c1ccc(=O)n(-c2cccc(C(=O)N3CCOCC3)c2)n1)c1cc(N)cc(C(F)(F)F)c1 [Example 254, N-[(1R)-1-[3-amino-5-(trifluoromethyl)phenyl]ethyl]-1-[3-(morpholine-4-carbonyl)phenyl]-6-oxo-pyridazine-3-carboxamide]	< 1000 nM
CNCc1ccc(Cl)cc1-c1ccc([C@@H](C)NC(=O)c2ccc(=O)n(-c3ccccc3F)c2)s1 [Example 283, N-[(1R)-1-[5-[5-chloro-2-(methylaminomethyl)phenyl]-2-thienyl]ethyl]-1-(2-fluorophenyl)-6-oxo-pyridine-3-carboxamide]	< 1000 nM
C[C@@H](NC(=O)c1ccc(=O)n(-c2c(F)cccc2F)n1)c1cccc(C(F)(F)CO)c1F [Example 357, N-[(1R)-1-[3-(1,1-difluoro-2-hydroxy-ethyl)-2-fluoro-phenyl]ethyl]-1-(2,6-difluorophenyl)-6-oxo-pyridazine-3-carboxamide]	1000 to 10000 nM
C[C@@H](NC(=O)c1nn(-c2ccccc2F)c(=O)cc1Nc1ccccc1)c1cc(N)cc(C(F)(F)F)c1 [Example 210, N-[(1R)-1-[3-amino-5-(trifluoromethyl)phenyl]ethyl]-4-anilino-1-(2-fluorophenyl)-6-oxo-pyridazine-3-carboxamide]	< 1000 nM
COc1cc(-n2nc(C(=O)N[C@H](C)c3cc(N)cc(C(F)(F)F)c3)ccc2=O)ccn1 [Example 196, N-[(1R)-1-[3-amino-5-(trifluoromethyl)phenyl]ethyl]-1-(2-methoxy-4-pyridyl)-6-oxo-pyridazine-3-carboxamide]	< 1000 nM
C[C@@H](NC(=O)c1ccc(=O)n(-c2cccc(-c3cnn(C)c3)c2)n1)c1cccc(C(F)(F)CO)c1F [Example 340, N-[(1R)-1-[3-(1,1-difluoro-2-hydroxy-ethyl)-2-fluoro-phenyl]ethyl]-1-[3-(1-methylpyrazol-4-yl)phenyl]-6-oxo-pyridazine-3-carboxamide]	< 1000 nM
C[C@@H](NC(=O)c1ccc(=O)n(-c2cccc(C(=O)NCCN(C)C)c2)n1)c1cc(N)cc(C(F)(F)F)c1 [Example 251, N-[(1R)-1-[3-amino-5-(trifluoromethyl)phenyl]ethyl]-1-[3-[2-(dimethylamino)ethylcarbamoyl]phenyl]-6-oxo-pyridazine-3-carboxamide]	< 1000 nM
C[C@@H](NC(=O)c1ccc(=O)n(-c2ccncc2)c1)c1cccc(C(F)(F)CO)c1F [Example 162, N-[(1R)-1-[3-(1,1-difluoro-2-hydroxy-ethyl)-2-fluoro-phenyl]ethyl]-6-oxo-1-(4-pyridyl)pyridine-3-carboxamide]	< 1000 nM
CNCc1ccc(F)cc1-c1ccc([C@@H](C)NC(=O)c2ccc(=O)n(-c3cccc(C(=O)N(C)C)c3F)n2)s1 [Example 297, 1-[3-(dimethylcarbamoyl)-2-fluoro-phenyl]-N-[(1R)-1-[5-[5-fluoro-2-(methylaminomethyl)phenyl]-2-thienyl]ethyl]-6-oxo-pyridazine-3-carboxamide]	< 1000 nM
CNCc1ccc(Cl)cc1-c1ccc([C@@H](C)NC(=O)c2ccc(=O)n(-c3cnn(C)c3)n2)s1 [Example 292, (R)-N-(1-(5-(5-chloro-2-((methylamino)methyl)phenyl)thiophen-2-yl)ethyl)-1-(1-methyl-1H-pyrazol-4-yl)-6-oxo-1,6-dihydropyridazine-3-carboxamide]	< 1000 nM

The next lines start with the values.

IC50	SMILES
< 1000 nM	CNCc1cc2c(cc1-c1ccc([C@@H](C)NC(=O)c3ccc(=O)n(-c4ccccc4F)c3)s1)CCC2 [Example 273, 1-(2-fluorophenyl)-N-[(1R)-1-[5-[6-(methylaminomethyl)indan-5-yl]-2-thienyl]ethyl]-6-oxo-pyridine-3-carboxamide]
< 1000 nM	COCCNC(=O)c1cccc(-n2nc(C(=O)N[C@H](C)c3cc(N)cc(C(F)(F)F)c3)ccc2=O)c1F [Example 232, (R)-N-(1-(3-amino-5-(trifluoromethyl)phenyl)ethyl)-1-(2-fluoro-3-((2-methoxyethyl)carbamoyl)phenyl)-6-oxo-1,6-dihydropyridazine-3-carboxamide]
< 1000 nM	COc1ccc(-n2cc(C(=O)N[C@H](C)c3cccc(C(F)(F)CO)c3F)ccc2=O)cc1 [Example 203, N-[(1R)-1-[3-(1,1-difluoro-2-hydroxy-ethyl)-2-fluoro-phenyl]ethyl]-1-(4-methoxyphenyl)-6-oxo-pyridine-3-carboxamide]
< 1000 nM	C[C@@H](NC(=O)c1ccc(=O)n(-c2cccc(C(=O)N3CCOCC3)c2F)n1)c1cc(N)cc(C(F)(F)F)c1 [Example 233, (R)-N-(1-(3-amino-5-(trifluoromethyl)phenyl)ethyl)-1-(2-fluoro-3-(morpholine-4-carbonyl)phenyl)-6-oxo-1,6-dihydropyridazine-3-carboxamide]
1000 to 10000 nM	C[C@@H](NC(=O)c1ccc(=O)n(CCN(C)C)n1)c1cc(N)cc(C(F)(F)F)c1 [Example 229, N-[(1R)-1-[3-amino-5-(trifluoromethyl)phenyl]ethyl]-1-[2-(dimethylamino)ethyl]-6-oxo-pyridazine-3-carboxamide]
1000 to 10000 nM	C[C@@H](NC(=O)c1ccc(=O)n(-c2cccc(-c3ncco3)c2)n1)c1cc(N)cc(C(F)(F)F)c1 [Example 239, N-[(1R)-1-[3-amino-5-(trifluoromethyl)phenyl]ethyl]-1-[3-(1,3-oxazol-2-yl)phenyl]-6-oxo-1,6-dihydropyridazine-3-carboxamide]
< 1000 nM	C[C@@H](NC(=O)c1ccc(=O)n(-c2ccccc2F)n1)c1ccc(-c2cc(F)ccc2CNCCO)s1 [Example 300, N-[(1R)-1-[5-[5-fluoro-2-[(2-hydroxyethylamino)methyl]phenyl]-2-thienyl]ethyl]-1-(2-fluorophenyl)-6-oxo-pyridazine-3-carboxamide]
< 1000 nM	C[C@@H](NC(=O)c1ccc(=O)n(-c2ccccc2F)n1)c1cc(N)cc(C(F)(F)F)c1F [Example 245, N-[(1R)-1-[5-amino-2-fluoro-3-(trifluoromethyl)phenyl]ethyl]-1-(2-fluorophenyl)-6-oxo-pyridazine-3-carboxamide]
< 1000 nM	C[C@@H](NC(=O)c1ccc(=O)n(-c2cccc(-c3ccn(C)n3)c2)n1)c1cc(N)cc(C(F)(F)F)c1 [Example 331, N-[(1R)-1-[3-amino-5-(trifluoromethyl)phenyl]ethyl]-1-[3-(1-methylpyrazol-3-yl)phenyl]-6-oxo-pyridazine-3-carboxamide]
< 1000 nM	CNCc1ccc(C)cc1-c1ccc([C@@H](C)NC(=O)c2ccc(=O)n(-c3cccnc3F)n2)s1 [Example 402, 1-(2-fluoropyridin-3-yl)-N-[(1R)-1-(5-{5-methyl-2-[(methylamino)methyl]phenyl}thiophen-2-yl)ethyl]-6-oxo-1,6-dihydropyridazine-3-carboxamide]
< 1000 nM	CNCc1ccc(Cl)cc1-c1ccc([C@@H](C)NC(=O)c2ccc(=O)n(-c3cnn(CCOC)c3)n2)s1 [Example 406]
< 1000 nM	CNCc1ccc(F)cc1-c1ccc([C@@H](C)NC(=O)c2ccc(=O)n(-c3cnn(C)c3)n2)s1 [Example 296, N-[(1R)-1-[5-[5-fluoro-2-(methylaminomethyl)phenyl]-2-thienyl]ethyl]-1-(1-methylpyrazol-4-yl)-6-oxo-pyridazine-3-carboxamide]
< 1000 nM	C[C@@H](NC(=O)c1ccc(=O)n(-c2ccccc2F)n1)c1cccc(C#N)c1F [Example 260, N-[(1R)-1-(3-cyano-2-fluoro-phenyl)ethyl]-1-(2-fluorophenyl)-6-oxo-pyridazine-3-carboxamide]
> 10000 nM	C[C@@H](NC(=O)c1nn(-c2ccccc2F)c(=O)cc1O)c1cc(N)cc(C(F)(F)F)c1 [Example 363, N-[(1R)-1-[3-amino-5-(trifluoromethyl)phenyl]ethyl]-1-(2-fluorophenyl)-4-hydroxy-6-oxo-pyridazine-3-carboxamide]
